# According to PubChem BioAssay (NCI):
#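 Results reflect a 48-hour exposure of cells in 96-well plates to compound at five concentrations. TGI is the concentration that stops growth completely.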
# How the values were obtained:
# Test in all cases: NCI-60 cell line screen, 48 h
# SR leukemia = tested on: SR leukemia
# T-47D breast = tested on: T-47D breast
# HCC-2998 colon = tested on: HCC-2998 colon
# ACHN renal = tested on: ACHN renal
# MDA-N = tested on: MDA-N
# KM12 colon = tested on: KM12 colon
# HCT-15 colon = tested on: HCT-15 colon
# SN12C renal = tested on: SN12C renal
# CAKI-1 renal = tested on: CAKI-1 renal
# MOLT-4 leukemia = tested on: MOLT-4 leukemia
Structure (SMILES),TGI (SR leukemia) [µM],TGI (T-47D breast) [µM],TGI (HCC-2998 colon) [µM],TGI (ACHN renal) [µM],TGI (MDA-N) [µM],TGI (KM12 colon) [µM],TGI (HCT-15 colon) [µM],TGI (SN12C renal) [µM],TGI (CAKI-1 renal) [µM],TGI (MOLT-4 leukemia) [µM]
Cc1[nH]c(=O)c2oc3cc4ccccc4cc3c2c1C(=O)O,> 10,> 10,> 10,> 10,> 10,> 10,> 10,> 10,,
C(=C\c1cc[n+](CCc2ccccc2)cc1)/c1ccccc1,,71.7,,> 100,,18.2,> 100,16.4,86.1,69.4
N#CC1=C(S)N(C2OC(CO)C(O)C(O)C2O)C(c2ccccc2)=CC1c1ccco1 (stereo not drawn),> 100,99.5,> 100,,> 100,> 100,> 100,> 100,> 100,> 100
O=C(c1c(F)c(F)c(F)c(F)c1F)n1c(=S)n(C(=O)c2c(F)c(F)c(F)c(F)c2F)c2ccccc21,> 100,> 100,> 100,> 100,> 100,> 100,> 100,> 100,,54.3
Cc1cc(C=O)c2c(=O)c3c(O)ccc(/C=C/C(C)C)c3oc2c1,78.2,,> 100,> 100,,> 100,99.6,,> 100,86.5
CC(C)(C)n1c(=O)n2c(-c3ccccc3)c(-c3ccccc3)n2c1=O,,> 100,> 100,> 100,> 100,> 100,> 100,> 100,> 100,
COC(=O)N/N=c1\cc(C(=O)Nc2ccc(C)c(C)c2)oc2cc(O)ccc12,> 100,,> 100,> 100,,> 100,> 100,> 100,> 100,> 100
COC(=O)C1=C(OC)C(=P2(c3ccccc3)CC(c3ccccc3)=C2c2ccccc2)C(C(=O)OC)=C1C(=O)OC (stereo not drawn),,> 51.5,> 100,> 100,> 100,> 100,> 62.7,> 100,> 93.6,13.8
CCOc1ccc(OP2(=O)NC(=O)C=C(C)N2)cc1 (stereo not drawn),> 100,,,> 100,,> 100,> 100,> 100,> 100,> 100
CC(C)C(=O)Cc1ccc2ccccc2n1,,> 100,> 100,> 100,> 100,> 100,> 100,> 100,> 100,
CCN(CC)c1ccc(Cl)c2c1C(O)(C(C)C)C2(C)C (stereo not drawn),,,30.3,31.3,,28.4,44.9,30.5,34.2,35.8
CC(=O)Nc1ccc2c(c1)C(=O)c1ccccc1-2,> 100,,> 100,> 100,,> 100,> 100,> 100,,> 100
CS(=O)(=O)CCC1CCC(=O)O1 (stereo not drawn),> 100,> 100,> 100,90.4,,> 100,> 100,> 100,> 100,> 100
